Here are results for four compounds from US20180280465A1 (EVER Neuro Pharma GmbH, priority 2015, published 2018).

Like-named read-outs stand apart in the source and are kept apart here.

Data set [1] relates to NIH/3T3 murine fibroblasts. Put plainly: Resazurin-fibroblast-assay for assessment of cytotoxicity. As for the experimental part:
The vitality of the fibroblasts was detected with the Resazurin Reagent (Resazurin sodium salt powder (Sigma Aldrich R7017-1G)). Vital and metabolically active cells reduce the non-fluorescent dye resazurin to the fluorescent dye resorufin by using NADH. The amount of fluorescence is proportional to the amount of vital cells. The fluorescence intensity at 535 nm (excitation)/595 nm (emission) is detected with a plate reader.
Cells were cultured in a culture medium (DMEM high glucose) containing 10% FBS, 2 mM L-glutamine and 100 μg/ml penicilline/streptomycin under standard cell culture conditions (37° C., 5% CO2).
The cells were then incubated with the respective solutions in the incubator for 4 h, 18 h, or 24 h (depending on the assay protocol). For every time point a separate 96-well plate was prepared. • Day 1 or 2: Readout—Determination of the fluorescence intensity (resazurin readout): For the determination of the fluorescence intensity (resazurin readout) the medium (100 μl/well) was removed and 100 μl/well resazurin was added (final concentration 0.5 mM; 2.2 ml resazurin stock solution prepared in PBS with a final concentration of 2.5 mM was diluted in 8.8 ml proliferation medium). In the wells serving for the blank control (no cells) 100 μl/well resazurin (0.5 mM) was added. The 96-well plate was then incubated for 1 h in the incubator. The fluorescence intensity was then detected at 535 nm (excitation)/595 nm (emission) with a plate reader.
On the technique in general: Resazurin is reduced to fluorescent resorufin, in cell work by metabolically active cells.

The conditions of data set [2]: cited from earlier work.
For data set [3] the following is noted: in NaCl solution; cited from earlier work.

In the case of `O=C1O[C@H]([C@@H](O)CO)C(O)=C1O` [Ascorbate, (5R)-[(1S)-1,2-dihydroxyethyl]-3,4-dihydroxyfuran-2(5H)-one], the “effect on the toxic effect of oxoapomorphine” value in data set [1] is on record as “had no beneficial effect if the oxidative degradation product oxo-apomorphine was already present in the formulation”.

For `CN1CCc2cccc3c2[C@H]1Cc1ccc(O)c(O)c1-3` [apomorphine, (6aR)-6-methyl-5,6,6a,7-tetrahydro-4H-dibenzo[de,g]quinoline-10,11-diol], the “duration of effect (mean)” value in data set [2] (single dose) was 40 min. Moreover, the “incidence of nodule formation” value in data set [2] (subcutaneous apomorphine infusion therapy, meta analysis) is 70%. Further, the “patients terminating therapy because of irritations at the injection site” value in data set [2] (subcutaneous infusion, within one year) was 70%. Besides, in data set [3], the solubility (in general, how much of the substance goes into solution per volume) was less than 10000 µg/mL. Consider `CC(O)CO` (stereo not drawn) [α-propylene glycol, propane-1,2-diol], for which the “influence of isotonization agent on the cytotoxic effects in the cell culture system” value in data set [1] (NIH/3T3 fibroblasts) is on record as “did not have any influence (negative or positive) on the cytotoxic effects”. In the case of `N[C@@H](CCC(=O)N[C@@H](CS)C(=O)NCC(=O)O)C(=O)O` [Glutathione, (2S)-2-amino-4-{[(1R)-1-[(carboxymethyl)carbamoyl]-2-sulfanylethyl]carbamoyl}butanoic acid], the “effect on the toxic effect of oxoapomorphine” value in data set [1] (NIH/3T3 cells, oxoapomorphine present) is reported as “could abolish the toxic effect of oxoapomorphine”.
